Patent US7179819B2, “VLA-4 inhibitor compounds” (Daiichi Pharmaceutical Co., Ltd., priority 1999, dated 2007)
Where a name gives a salt, the structure may show the parent alone.

Experiment: not given
Conditions: not given

SMILES | melting point
Cc1ccccc1NC(=O)Nc1ccc(CC(=O)N2C[C@@H](Oc3ccc(C(=O)O)cc3)C[C@H]2COc2ccc(C(=O)O)cc2)cc1 [Compound 119, 4-[(4S)-(4-carboxyphenoxy)-1-[4-[N′-(2-methylphenyl)uriedo]phenylacetyl]-(2S)-pyrrolidinylmethoxy]benzoic acid] | 157 to 160 °C
COc1cc(CC(=O)N2C[C@@H](O)C[C@H]2COc2ccc(C(=O)O)cc2)ccc1NC(=O)Nc1ccccc1Cl [Compound 107, 4-[1-[4-[N′-(2-chlorophenyl)ureido]-3-methoxyphenylacetyl]-(4S)-hydroxy-(2S)-pyrrolidinyl]methoxybenzoic acid] | 138 to 142 °C (dec.)
COc1cc(CC(=O)N2CC(F)(F)C[C@H]2COc2ccc(C(=O)O)cc2)ccc1NC(=O)Nc1ccccc1C (stereo in doubt) [Compound 139, 4-[4,4-difluoro-1-[3-methoxy-4-[N′-(2-methylphenyl)ureido]phenylacetyl]-2-pyrrolidinylmethoxy]benzoic acid] | 135 to 140 °C
COc1cc(CC(=O)N(C)CCOc2ccc(C(=O)O)cc2N2CCCCC2)ccc1NC(=O)Nc1ccccc1F [Compound 289, 3-(1-piperidinyl)-4-[[2-[3-methoxy-4-[N′-(2-fluorophenyl)ureido]phenylacetyl]methylamino]ethoxy]benzoic acid] | 125 to 130 °C
COc1cc(CC(=O)N(Cc2ccccc2)[C@@H](C)COc2ccc(C(=O)O)cc2Cl)ccc1NC(=O)Nc1ccccc1F [Compound 287, (S)-3-chloro-4-[2-[N-benzyl-N-[3-methoxy-4-[N′-(2-fluorophenyl)ureido]phenylacetyl]amino]-1-propoxy]benzoic acid] | 125 to 130 °C
COc1cc(CC(=O)N2C[C@H](OC)C[C@H]2COc2ccc(C(=O)O)cc2)ccc1NC(=O)Nc1ccccc1C [Compound 135, 4-[(4R)-methoxy-1-[3-methoxy-4-[N′-(2-methylphenyl)ureido]phenylacetyl]-(2S)-pyrrolidinylmethoxy]benzoic acid] | 112 to 115 °C
COc1cc(CC(=O)N2C[C@@H](N(C)C)C[C@H]2COc2ccc(C(=O)O)cc2)ccc1NC(=O)Nc1ccccc1Cl | 165 to 167 °C
COc1cc(CC(=O)N2CCC[C@H]2COc2ccc(C(=O)O)cc2OC)ccc1NC(=O)Nc1ccccc1F (stereo in doubt) [Compound 39, 4-[1-[4-[N′-(2-fluorophenyl)ureido]-3-methoxyphenylacetyl]-2-pyrrolidinyl]methoxy-3-methoxy benzoic acid] | 140 to 144 °C
COc1cc(CC(=O)N[C@H](C)COc2ccc(C(=O)O)cc2OC)ccc1NC(=O)Nc1ccccc1C [Compound 260, (R)-3-methoxy-4-[2-[3-methoxy-4-[N′-(2-methylphenyl)ureido]phenylacetylamino]-1-propoxy]benzoic acid] | 168 to 169 °C
COc1cc(CC(=O)N(C)CCOc2ccc(C(=O)O)cc2N(C)C)ccc1NC(=O)Nc1ccccc1F [Compound 277, 3-dimethylamino-4-[[2-[3-methoxy-4-[N′-(2-fluorophenyl)ureido]phenylacetyl]methylamino]ethoxy]benzoic acid] | 120 to 125 °C
CN[C@@H]1C[C@@H](COc2ccc(C(=O)O)cc2)N(C(=O)Cc2ccc(NC(=O)Nc3ccccc3C)c(OC)c2)C1 [Compound 153, 4-[trans-1-[3-methoxy-4-[N′-(2-methylphenyl)ureido]phenylacetyl]4-methylamino-(2S)-pyrrolidinyl]methoxybenzoic acid] | 162 to 164 °C
O=C(Nc1ccccc1)Nc1ccc(CC(=O)N2C[C@@H](F)C[C@H]2COc2ccc(C(=O)O)cc2)cc1 [Compound 72, 4-[(4S)-fluoro-1-[4-(N′-phenylureido)phenylacetyl]-(2S)-pyrrolidinylmethoxy]benzoic acid] | 169 to 171 °C
COc1cc(CC(=O)N(C)CCOc2ccc(C(=O)O)cc2N(C)C)ccc1NC(=O)Nc1ccccc1C [Compound 276, 3-dimethylamino-4-[[2-[3-methoxy-4-[N′-(2-methylphenyl)ureido]phenylacetyl]methylamino]ethoxy]benzoic acid] | 125 to 130 °C
COc1cc(CC(=O)N(C)[C@@H](C)COc2ccc(C(=O)O)cc2Cl)ccc1NC(=O)Nc1ccccc1F [Compound 283, (S)-3-chloro-4-[2-[N-methyl-N-[3-methoxy-4-[N′-(2-fluorophenyl)ureido]phenylacetyl]amino]-1-propoxy]benzoic acid] | 142 to 147 °C
Cc1ccccc1NC(=O)Nc1ccc(CC(=O)N[C@@H](C)COc2ccc(C(=O)O)cc2)cc1 [Compound 273, (S)-4-[2-[4-[N′-(2-methylphenyl)ureido]phenylacetylamino]-1-propoxy]benzoic acid] | 262 to 265 °C
Cc1cc(CC(=O)N2C[C@@H](F)C[C@H]2COc2ccc(C(=O)O)cc2)ccc1NC(=O)Nc1ccccc1F [Compound 74, 4-[(4S)-fluoro-1-[4-[N′-(2-fluorophenyl)ureido]-3-methylphenylacetyl]-(2S)-pyrrolidinylmethoxy]benzoic acid] | 137 to 143 °C
COc1cc(CC(=O)N[C@@H](C)COc2ccc(C(=O)O)cc2)ccc1NC(=O)Nc1ccccc1C [Compound 272, (S)-4-[2-[3-methoxy-4-[N′-(2-methylphenyl)ureido]phenylacetylamino]-1-propoxy]benzoic acid] | 198 to 201 °C
COc1cc(CC(=O)N2C[C@H](OC)C[C@H]2COc2ccc(C(=O)O)cc2)ccc1NC(=O)Nc1ccccc1Br [Compound 138, 4-[1-[4-[N′-(2-bromophenyl)ureido]-3-methoxyphenylacetyl]-(4R)-methoxy-(2S)-pyrrolidinylmethoxy]benzoic acid] | 125 to 130 °C

Second part, the compound after the results:

melting point | SMILES
240 to 245 °C | COc1cc(CC(=O)N2CCN(c3ccc(C(=O)O)cc3)CC2)ccc1NC(=O)Nc1ccccc1C [Compound 259]
152 to 155 °C (dec.) | COc1cc(CC(=O)N2CCCC2C#Cc2ccc(C(=O)O)cc2)ccc1NC(=O)Nc1ccccc1F (centres unmarked) [Compound 33, 4-[2-[1-[4-[N′-(2-fluorophenyl)ureido)-3-methoxyphenylacetyl]-2-pyrrolidinyl]ethynyl]benzoic acid]
202 to 205 °C | COc1cc(CC(=O)N[C@@H](C)COc2ccc(C(=O)O)cc2)ccc1NC(=O)Nc1ccccc1Br [Compound 294, (S)-4-[2-[3-methoxy-4-[N′-(2-bromophenyl)ureido]phenylacetylamino]-1-propoxy]benzoic acid]
155 to 160 °C | COc1cc(CC(=O)N(C)CCNc2ccc(C(=O)O)c(NC(C)=O)c2)ccc1NC(=O)Nc1ccccc1Br [Compound 303, 2-acetylamino-4-[2-N-[4-[N′-(2-bromophenyl)ureido]-3-methoxyphenyl]-N-methylacetamido]ethylaminobenzoic acid]
125 to 130 °C | COc1cc(CC(=O)N(C)CCN(C)c2ccc(C(=O)O)cc2)ccc1NC(=O)Nc1ccccc1C [Compound 286, 4-[[2-[3-methoxy-4-[N′-(2-methylphenyl)ureido]phenylacetyl]methylamino]ethyl]methylamino benzoic acid]
139 to 141 °C | COc1cc(CC(=O)N(C)CCOc2ccc(C(=O)O)cc2C(=O)O)ccc1NC(=O)Nc1ccccc1C (as salt: salt) [Compound 254, 4-[[2-[3-methoxy-4-[N′-(2-methylphenyl)ureido]phenylacetyl]methylamino]ethoxy]isophthalic acid]
129 to 132 °C | COc1cc(CC(=O)N2C[C@@H](F)C[C@H]2COc2ccc(C(=O)O)cc2)ccc1NC(=O)Nc1ccccc1C(F)(F)F [Compound 76, 4-[(4S)-fluoro-1-[3-methoxy-4-[N′-(2-trifluoromethylphenyl)ureido]phenylacetyl]-(2S)-pyrrolidinylmethoxy]benzoic acid]
170 to 171 °C | COc1cc(CC(=O)N2CC(N)C[C@H]2COc2ccc(C(=O)O)cc2)ccc1NC(=O)Nc1ccccc1C (stereo in doubt) [Compound 151, 4-[trans-4-amino-1-[3-methoxy-4-[N′-(2-methylphenyl)ureido]phenylacetyl]-(2S)-pyrrolidinyl]methoxybenzoic acid]
132 to 135 °C | COc1cc(CC(=O)N2CCC[C@H]2COc2ccc(C(=O)O)cc2OC)ccc1NC(=O)Nc1ccccc1C [Compound 27]
130 to 135 °C | COc1cc(CC(=O)N(C)CCOc2ccc(C(=O)O)cc2NC(C)C)ccc1NC(=O)Nc1ccccc1C [Compound 285, 3-isopropylamino-4-[[2-[3-methoxy-4-[′-(2-methylphenyl)ureido]phenylacetyl]methylamino]ethoxy]benzoic acid]
243 to 245 °C | COc1cc(CC(=O)N2CCC[C@H]2CS(=O)(=O)c2cccc(C(=O)O)c2)ccc1NC(=O)Nc1ccccc1C (stereo in doubt) (as salt: salt) [Compound 21, 3-[[1-[3-methoxy-4-[N′-(2-methylphenyl)ureido]phenylacetyl]-2-pyrrolidinyl]methylsulfonyl]benzoic acid]

Experiment: Mouse bio-assay: serum concentration after oral dosing, determined by direct binding assay of diluted serum
Conditions: female, Balb/c, serum, po, 10 mg/kg
Description: A compound was dissolved or suspended with an appropriate solvent at 1 mg/mL. Female Balb/c mice (7–9 weeks old) were given the compound orally. Blood samples were collected from the postcaval vein of the anesthetized mice after fifteen minutes. Serum was prepared and stored at −20° C. Serum concentration of the compound was determined from inhibitory activities of the diluted serum by a direct binding assay using VLA-4-expressing cells and VCAM-IgG fusion protein. Serum concentration determined by this method correlated well with the concentration determined by LC/MS/MS methodologies.

concentration at 15 min [ng/mL] | SMILES
841 | COc1cc(CC(=O)N2C[C@@H](Oc3ccc4ccccc4c3)C[C@H]2COc2ccc(C(=O)O)cc2)ccc1NC(=O)Nc1ccccc1Cl [Compound 124, 4-[(2S,4S)-1-[4-[N′-(2-chlorophenyl)ureido]-3-methoxyphenylacetyl]-4-(2-naphtyloxy)-2-pyrrolidinyl]methoxybenzoic acid]
368 | Cc1ccccc1NC(=O)Nc1ccc(CC(=O)N2C[C@@H](F)C[C@H]2COc2ccc(C(=O)O)cc2)cc1C [Compound 78, 4-[(4S)-fluoro-1-[3-methyl-4-[N′-(2-methylphenyl)ureido]phenylacetyl]-(2S)-pyrrolidinyl]methoxybenzoic acid]

Same assay, conditions: female, Balb/c, serum, po, 50 mg/kg

concentration at 15 min [ng/mL] | SMILES
603 | COc1cc(CC(=O)N(CCOc2ccc(C(=O)O)cc2)CCN2CCC(F)(F)C2)ccc1NC(=O)Nc1ccccc1Br [Compound 319, 4-[2-N-[2-(3,3-difluoro-1-pyrrolidinyl)ethyl]-N-[4-[N′-(2-bromophenyl)ureido]-3-methoxyphenyl]acetamido]ethoxybenzoic acid sodium salt]
